Experimental data from patent US11141406B2, “Pharmaceutical compounds” (REVIRAL LIMITED, priority 2017, dated 2021).

Key:
[1] = Liver microsomal stability, dog; assay type: in vitro ADME; conditions: pooled liver microsomes, pH 7.4, 3 μM compound, 0.5 mg/mL protein, read-out: Liver Microsomal Stability t1/2
Procedure: (§1) Microsomal incubation: Experimental Procedure Pooled liver microsomes are purchased from a reputable commercial supplier and stored at −80° C. prior to use. Microsomes (final protein concentration 0.5 mg/mL), 0.1 M phosphate buffer pH 7.4 and test compound (final substrate concentration 3 μM, final DMSO concentration 0.25%) are pre-incubated at 37° C. prior to the addition of NADPH (final concentration 1 mM) to initiate the reaction. The final incubation volume is […]. A control incubation is included for each compound tested where 0.1 M phosphate buffer pH 7.4 is added instead of NADPH (minus NADPH). Two control compounds are included with each species. All incubations are performed singularly for each test compound. Each compound is incubated for 0, 5, 15, 30 and 45 min. The control (minus NADPH) is incubated for 45 min only. The reactions are stopped by transferring 20 μL of incubate to 60 μL MeOH at the appropriate time points. The termination plates are centrifuged at 2,500 rpm for 20 min at 4° C. to precipitate the protein. Following protein precipitation, the sample supernatants are combined in cassettes of up to 4 compounds, internal standard is added and samples analysed by LC-MS/MS. From a plot of In peak area ratio (compound peak area/internal standard peak area) against time, the gradient of the line is determined. Subsequently, half-life and intrinsic clearance are calculated.

MDR1 = experiment: in vitro; assay type: in vitro ADME; conditions: dog, MDCK-MDR1
Procedure: MDR1-MDCK Permeability: Experimental Procedure
MDR1-MDCK cells obtained from the NIH (Rockville, Md., USA) are used between passage numbers 6-30. Cells are seeded onto Millipore Multiscreen Transwell plates at 3.4×10^5 cells/cm^2. The cells are cultured in DMEM and media is changed on day 3. On day 4 the permeability study is performed. Cell culture and assay incubations are carried out at 37° C. in an atmosphere of 5% CO2 with a relative humidity of 95%. On the day of the assay, the monolayers are prepared by rinsing both basolateral and apical surfaces twice with Hanks Balanced Salt Solution (HBSS) at the desired pH warmed to 37° C. Cells are then incubated with HBSS at the desired pH in both apical and basolateral compartments for 40 min to stabilise physiological parameters.
The dosing solutions are prepared by diluting test compound with assay buffer to give a final test compound concentration of 10 μM (final DMSO concentration of 1% v/v). The fluorescent integrity marker lucifer yellow is also included in the dosing solution. Analytical standards are prepared from test compound DMSO dilutions and transferred to buffer, maintaining a 1% v DMSO concentration.
For assessment of A-B permeability, HBSS is removed from the apical compartment and replaced with test compound dosing solution. The apical compartment insert is then placed into a companion plate containing fresh buffer (containing 1% v/v DMSO). For assessment of B-A permeability, FIBSS is removed from the companion plate and replaced with test compound dosing solution. Fresh buffer (containing 1% v/v DMSO) is added to the apical compartment insert, which is then placed into the companion plate. At 60 min the apical compartment inserts and the companion plates are separated and apical and basolateral samples diluted for analysis. Test compound permeability is assessed in duplicate. Compounds of known permeability characteristics are run as controls on each assay plate.
Test and control compounds are quantified by LC-MS/MS cassette analysis using an 8-point calibration with appropriate dilution of the samples. The starting concentration (C0) is determined from the dosing solution and the experimental recovery calculated from C0 and both apical and basolateral compartment concentrations. The integrity of the monolayer throughout the experiment is checked by monitoring lucifer yellow permeation using fluorimetric analysis. Lucifer yellow permeation is high if monolayers have been damaged.

[2] = Liver microsomal stability, rat; assay type: in vitro ADME; conditions: pooled liver microsomes, pH 7.4, 3 μM compound, 0.5 mg/mL protein, read-out: Liver Microsomal Stability t1/2
Procedure: as §1

[3] = Liver microsomal stability, human; assay type: in vitro ADME; conditions: pooled liver microsomes, pH 7.4, 3 μM compound, 0.5 mg/mL protein, read-out: Liver Microsomal Stability t1/2
Procedure: as §1

[4] = tested on: RSV fusion (HEK293T cells transfected with pCDNA3.1_A2_F); experiment: RSV fusion assay; assay type: cell-based; conditions: human respiratory syncytial virus, HEK-293T, read-out: RSV Fusion Assay (n ≥ 2) IC50
Procedure: HEK293T ((ECACC 12022001) cells were cultured in T75 culture flasks in Dulbecco's medium (DMEM) containing 10% Foetal Bovine serum (FBS), 50 units per mL Penicillin and 50 μg/mL Streptomycin and warmed to 37° C. prior to use. The cells were passaged by first washing briefly with 5 mL Phosphate buffered saline (PBS), followed by addition of 2 mL of Trypsin Ethylenediaminetetraacetic acid (EDTA) to detach the cells. Once cells had detached from the flask, 8 mL media was then added to and the cells dispersed via pipetting against the bottom of the flask.
The cells were counted and diluted to 3×10^5 cells/mL in fresh media. Two T75 flasks were each seeded with 15.6 mL diluted cells, cells were also subcultured at a ratio of between 1:2 and 1:10, to continue the stock. The flasks were then incubated for 24 h at 37° C. and 5% CO2.
The plasmid DNA (for pFR-Luc and pcDNA3.1_Gal4/NFKB) to be transfected into the HEK 293T cells was first prepared in serum free media (Opti-MEM, Invitrogen), containing the transfection reagent FuGENE® 6 (Promega). Serum free media was placed in a 1.5 mL eppendorf tube then the FuGENE 6 was added into the media. The tube was vortexed for 1 s before being incubated at RT for 5 min. 7.79 ng of both pFR_luc and pCDNA3.1_A2_F plasmid DNA were added to tube 1 and 7.79 ng of pCDNA3.1_GAL4-NF-κB plasmid to tube 2. The tubes were vortexed for 1 second and then incubated at room temperature for 15 min. Each transfection mixture was then added into the media of one of the T75 flasks of 293T cells. Cells were cultured for 24 h at 37° C., 5% CO2 in a humidified incubator.
Compounds were diluted (in a polypropylene round-bottomed 96 well plate) 1:3 in a twelve point dilution curve to give top [final] of either 25 μM, 3 μM, 1 μM or 500 nM. A control compound was included in every assay at a top concentration of 3 μM. Transfected cells were counted and diluted to 4×10^5 cells/mL in fresh media. 50 μL of transfection population 1 were added to all wells of the 96 well flat bottom white opaque assay plates. 100 μL diluted compound (2 rows per compound), control compound (one row) and controls (DMSO (0% inhibition, four wells), 3 μM positive control (100% inhibition, four wells) and media (transfection population 1 only, four wells) were added to the appropriate wells. 50 μL of the diluted (4×10^5 cells/mL) population 2 cells when then added to all wells, except the four wells of transfection population 1 only where an extra 50 μL of this cells population was added.
The plates were then incubated for 24 h at 37° C. and 5% CO2. After this time, 100 μL was removed from all wells and 60 μL of ONE-Glo™ (Promega) reagent, pre-equilibrated to room temperature, was added. Plates were then incubated for 3 min at room temperature before luminescence was read, using the ONE-Glo protocol, on the GloMax Explorer System (Promega) multimode reader. Analysis was carried out in Dotmatics software. All raw data were background subtracted (subtraction of mean 3 μM positive control value), before IC50 calculation.

SMILES	half-life at 3 μM [1] [h]	Papp A→B at 60 min, 10 μM (MDR1) [×10⁻⁶ cm/s]	Papp B→A at 60 min, 10 μM (MDR1) [×10⁻⁶ cm/s]	half-life at 3 μM [2] [h]	half-life at 3 μM [3] [h]	IC50 [4] [nM]
CS(=O)(=O)CCCn1c(CN2C(=O)C(F)(F)c3ccccc32)nc2cc(Cl)ccc21 [Compound 5, 1-{[5-Chloro-1-(3-methanesulfonylpropyl)-1H-1,3-benzodiazol-2-yl]methyl}-3,3-difluoro-2,3-dihydro-1H-indol-2-one]	1.05	0.21	14.5	0.355	54.7	3.9
CCS(=O)(=O)N1CCC(n2c(CN3C(=O)C(F)(F)c4ccccc43)nc3cc(Cl)ccc32)CC1 [Compound 9, 1-({5-Chloro-1-[1-(ethanesulfonyl)piperidin-4-yl]-1H-1,3-benzodiazol-2-yl}methyl)-3,3-difluoro-2,3-dihydro-1H-indol-2-one]	1.97	10.4	18.3	0.377	1.5	2.2
O=C1N(Cc2nc3cc(Cl)ccc3n2C2CCOCC2)c2ccccc2C1(F)F [Compound 10, 1-{[5-Chloro-1-(oxan-4-yl)-1H-1,3-benzodiazol-2-yl]methyl}-3,3-difluoro-2,3-dihydro-1H-indol-2-one]	0.207	19.8	34.4	0.303	1.12	17
CC(C)CCn1c(CN2C(=O)C(F)(F)c3ccccc32)nc2cc(CN)ccc21 [Compound 13, 1-{[5-(Aminomethyl)-1-(3-methylbutyl)-1H-1,3-benzodiazol-2-yl]methyl}-3,3-difluoro-2,3-dihydro-1H-indol-2-one]	154	0.84	57.1	0.282	6.1	2.6
